Common to all, as to assay type: biochemical
The target of one assay is T1, GPRTase from G. lamblia (Giardia duodenalis, UniProt Q24973).
T1 sequence (Q24973 1-230): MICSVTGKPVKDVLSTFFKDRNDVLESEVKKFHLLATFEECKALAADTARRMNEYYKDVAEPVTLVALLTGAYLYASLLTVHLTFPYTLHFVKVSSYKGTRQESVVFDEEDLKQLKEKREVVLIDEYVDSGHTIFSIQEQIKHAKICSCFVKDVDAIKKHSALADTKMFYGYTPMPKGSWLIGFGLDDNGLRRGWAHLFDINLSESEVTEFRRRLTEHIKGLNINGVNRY
Briefly: Enzyme assay, [14C]-guanine to GMP conversion, G. lamblia GPRTase. The conditions noted are these: recombinant enzyme, 10% DMSO, 37° C., 5 min, pH 6.8, read-out: IC50 GLG (GPRTase from G. lamblia). How it is done: (§1) Protocol For Testing Compounds of Formula I Against Tritrichomonas foetus HGXPRTase, Giardia lamblia GPRTase and Human HGPRTase
(§2) The enzyme assay mixture, in a final volume of 20 μl, consisted of the following:
(§3) Bis-Tris-HCl, pH 6.8 0.3 M
(§4) 5-Phospho-1-ribosylpyrophosphate 0.1 mM
(§5) [^14 C]-guanine (46 mCi/mmole) 22 μM
(§6) Thus, all the assay mixtures contain 10% DMSO.
(§7) The recombinant enzyme, purified to homogeneity in the native form, was diluted in a buffer solution of 50 mM Bis-Tris-HCl, pH 6.8, 6 mM MgCl2, and 1 mM dithiothreitol to a final concentration of 34 μg enzyme protein per ml. […] enzyme solution was added to the 20 μl reaction mixture, and maintained at 37° C., to start the enzyme-catalyzed reaction. The reaction was allowed to proceed at 37° C. for exactly 5 min, and then stopped by adding 23 μl of 1 mM guanine and 1 mM GMP to the reaction mixture.
(§8) Twenty μl of the final mixture was spotted on a polyethyleneimine-cellulose thin layer plate and chromatographed with 5 mM ammonium acetate pH 5.0. The unreacted [^14 C]-guanine migrated at the forefront of the chromatography with an Rf value of 0.62, whereas the product [^14 C]-GMP remained at the origin due to the negative charge of the molecule at pH 5.0. The spots of guanine and GMP were cut out from the plate, and the radioactivity in each spot measured with a Beckman LS-3801 scintillation counter. The radioactivities associated with the GMP and diminished from the guanine sample were used to calculate the amount of substrate converted to product within a unit time period.
(§9) Protocol For Testing Compounds of Formula II Against Tritrichomonas foetus HGXPRTase Giardia lamblia GPRTase and Human HGPRTase
(§10) The recombinant enzyme, purified to homogeneity in the native form, was diluted in a buffer solution of 50 mM Bis-Tris-HCl, pH 6.8, 6 mM MgCl2, and 1 mM dithiothreitol to a final concentration of 34 μg enzyme protein per ml. Two and one half μl of the diluted enzyme solution was added to the 20 μl reaction mixture, and maintained at 37° C., to start the enzyme-catalyzed reaction. The reaction was allowed to proceed at 37° C. for exactly 5 min, and then stopped by adding 23 μl of 1 mM guanine and 1 mM GMP to the reaction mixture.

Another assay has as its target T2, Human HGPRTase (Homo sapiens, UniProt P00492).
T2 sequence (P00492 1-218): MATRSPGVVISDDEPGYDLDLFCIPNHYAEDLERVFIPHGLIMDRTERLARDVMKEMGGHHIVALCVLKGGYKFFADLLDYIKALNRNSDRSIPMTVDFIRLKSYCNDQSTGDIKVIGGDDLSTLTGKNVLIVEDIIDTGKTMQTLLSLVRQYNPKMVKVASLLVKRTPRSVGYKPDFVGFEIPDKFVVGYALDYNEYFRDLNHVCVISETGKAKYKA
Put plainly: Enzyme assay, [14C]-guanine to GMP conversion, human HGPRTase. Conditions: recombinant enzyme, 10% DMSO, 37° C., 5 min, pH 6.8, read-out: IC50 HH (Human HGPRTase). Here is the method:
as §1, §2, §3, §4, §5, §6, §7, §8, §9, §10

A further assay concerns the target T3, HGXPRTase from T. foetus (Tritrichomonas foetus, UniProt P51900).
T3 construct: made in house; host or cells: Escherichia coli
T3 sequence (P51900 1-183): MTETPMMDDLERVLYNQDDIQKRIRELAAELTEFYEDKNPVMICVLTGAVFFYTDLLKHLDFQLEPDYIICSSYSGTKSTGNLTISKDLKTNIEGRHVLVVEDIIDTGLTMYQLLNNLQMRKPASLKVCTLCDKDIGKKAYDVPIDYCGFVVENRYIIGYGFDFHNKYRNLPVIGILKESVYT
Put plainly: Enzyme assay, [14C]-guanine to GMP conversion, T. foetus HGXPRTase. The conditions noted are these: read-out: IC50 TFH (HGXPRTase from T. foetus). How it is done: as §1, §2, §3, §4, §5, §6, §7, §8, §9, §10

Setting [1] is: Table 2, compounds of Formula I.
Setting [2] is: Table 2, compounds of Formula I, recombinant enzyme, 10% DMSO, 37° C., 5 min, pH 6.8.
Where [3] appears, read: Table 4, compounds of Formula II.
The mark [4] stands for this setting: Table 4, compounds of Formula II, recombinant enzyme, 10% DMSO, 37° C., 5 min, pH 6.8.

Like-named read-outs stand apart in the source and are kept apart here.

On to `O=C1Nc2ccccc2C1=NNc1ccc([N+](=O)[O-])cc1` [(I)1, 3-(4-nitrophenylhydrazono)-1,3-dihydroindol-2-one], for which the IC50 at GPRTase from G. lamblia (setting [1]) was greater than 1000 µM; on Human HGPRTase (setting [1]) it was 200 µM; at HGXPRTase from T. foetus (setting [2]), 240 µM.
Turning to `O=C1Nc2ccccc2C1=NN=Cc1ccc([N+](=O)[O-])cc1` [(I)2, 3-(4-nitrophenylidenehydrazono)-1,3-dihydroindol-2-one], the IC50 is greater than 1000 µM on GPRTase from G. lamblia (setting [1]), greater than 1000 µM at Human HGPRTase (setting [1]) and 50 µM on HGXPRTase from T. foetus (setting [2]).
As for `O=C1Nc2ccccc2C1=NN=Cc1ccc(Cl)cc1` [(I)3, 3-(4-chlorophenylidenehydrazono)-1,3-dihydroindol-2-one], the IC50 is greater than 1000 µM on GPRTase from G. lamblia (setting [1]), greater than 1000 µM on Human HGPRTase (setting [1]) and 170 µM on HGXPRTase from T. foetus (setting [2]).
Turning to `O=C1Nc2ccccc2C1=NN=Cc1cc(Cl)cc(Cl)c1O` [(I)4, 3-(2-hydroxy-3,5-dichlorophenylidenehydrazono)-1,3-dihydroindol-2-one], the IC50 at GPRTase from G. lamblia (setting [1]) and on HGXPRTase from T. foetus (setting [2]) was greater than 1000 µM each time.
As to `O=C1Nc2ccccc2C1=NN=Cc1cc(Br)ccc1O` [(I)5, 3-(2-hydroxy-5-bromophenylidenehydrazono)-1,3-dihydroindol-2-one], the figures for the IC50 at GPRTase from G. lamblia (setting [1]), on Human HGPRTase (setting [1]) and on HGXPRTase from T. foetus (setting [2]) were greater than 1000 µM, greater than 1000 µM and 460 µM, respectively.
For the molecule `O=C1Nc2ccc(Br)cc2C1=NN=Cc1ccc(Cl)c(Cl)c1` [(I)6, 3-(3,4-dichlorophenylidenehydrazono)-5-bromo-1,3-dihydroindol-2-one], the values for the IC50 at GPRTase from G. lamblia (setting [1]), on Human HGPRTase (setting [1]) and on HGXPRTase from T. foetus (setting [2]) were greater than 1000 µM, greater than 1000 µM and 300 µM, respectively.
As for `COc1ccc(CCNC=C2C(=O)Nc3ccccc32)cc1` [(I)7], the IC50 is greater than 1000 µM on GPRTase from G. lamblia (setting [1]), greater than 1000 µM at Human HGPRTase (setting [1]) and 200 µM at HGXPRTase from T. foetus (setting [2]).
Turning to `O=C(COc1ccc([N+](=O)[O-])cc1)NN=C1C(=O)Nc2ccccc21` [(I)8], the figures for the IC50 at GPRTase from G. lamblia (setting [1]), on Human HGPRTase (setting [1]) and at HGXPRTase from T. foetus (setting [2]) were greater than 1000 µM, greater than 1000 µM and 180 µM, respectively.
Turning to `CC(Oc1ccc(Cl)cc1Cl)C(=O)NN=C1C(=O)Nc2ccc(Br)cc21` (centres unmarked) [(I)9, 3-[2-(2,4-dichlorophenoxy)propanoylhydrazono]-5-bromo-1,3-dihydroindol-2-one], the values for the IC50 on GPRTase from G. lamblia (setting [1]), at Human HGPRTase (setting [1]) and on HGXPRTase from T. foetus (setting [2]) were 30 µM, greater than 1000 µM and 85 µM, respectively.
For `COc1ccc(CC(=O)N/N=C2\C(=O)Nc3ccc(Br)cc32)cc1OC` [(I)10, 3-[(3,4-dimethoxyphenyl)acetylhydrazono]-5-bromo-1,3-dihydroindol-2-one] the same measures were 90 µM, greater than 1000 µM and 320 µM.
Turning to `O=C(Nc1cccc([N+](=O)[O-])c1)c1ccc2c(c1)C(=O)OC2=O` [(II)1, 5-[N-(3-nitrophenyl)carbamoyl]-1,3-isobenzofurandione], the results for the IC50 at GPRTase from G. lamblia (setting [3]), at Human HGPRTase (setting [3]) and on HGXPRTase from T. foetus (setting [4]) were greater than 1000 µM, greater than 1000 µM and 300 µM, respectively.
`CC(=O)Nc1ccc(NC(=O)c2ccc3c(c2)C(=O)OC3=O)cc1` [(II)2, 5-[N-(4-acetamidophenyl)carbamoyl]-1,3-isobenzofurandione]: the IC50 on GPRTase from G. lamblia (setting [3]) was greater than 1000 µM; at Human HGPRTase (setting [3]), greater than 1000 µM; at HGXPRTase from T. foetus (setting [4]), 140 µM.
With `O=C(Nc1ccc(Cl)c(Cl)c1)c1ccc2c(c1)C(=O)OC2=O` [(II)3, 5-[N-(3,4-dichlorophenyl)carbamoyl]-1,3-isobenzofurandione], the IC50 on GPRTase from G. lamblia (setting [3]) is 30 µM; at Human HGPRTase (setting [3]), greater than 1000 µM; on HGXPRTase from T. foetus it was 50 µM.
`COc1ccc([N+](=O)[O-])cc1NC(=O)c1ccc2c(c1)C(=O)OC2=O` [(II)4, 5-[N-(2-methoxy-5-nitrophenyl)carbamoyl]-1,3-isobenzofurandione]: the IC50 is 500 µM at GPRTase from G. lamblia (setting [3]), greater than 1000 µM at Human HGPRTase (setting [3]) and 70 µM on HGXPRTase from T. foetus (setting [4]).
The corresponding values for `O=C(Nc1ccc(Cl)cc1Cl)c1ccc2c(c1)C(=O)OC2=O` [(II)5, 5-[N-(2,4-dichlorophenyl)carbamoyl]-1,3-isobenzofurandione] are 200 µM, greater than 1000 µM and 80 µM.
For `COc1ccc(Cl)cc1NC(=O)c1ccc2c(c1)C(=O)OC2=O` [(II)6, 5-[N-(2-methoxy-5-chlorophenyl)carbamoyl]-1,3-isobenzofurandione], the IC50 was 750 µM at GPRTase from G. lamblia (setting [3]), greater than 1000 µM at Human HGPRTase (setting [3]) and 22 µM at HGXPRTase from T. foetus (setting [4]).
Take `O=C(Nc1ccc2c(c1)C(=O)OC2)c1ccc(Cl)cc1` [(II)7, 5-[N-(4-chlorophenyl)carbonylamino]-3-isobenzofuranone]: the figures for the IC50 on GPRTase from G. lamblia (setting [3]), on Human HGPRTase (setting [3]) and at HGXPRTase from T. foetus (setting [4]) were greater than 1000 µM, greater than 1000 µM and 380 µM, respectively.
With `O=C1NC(=O)c2cc([N+](=O)[O-])c(SCc3ccc(Cl)cc3)cc21` [(II)8, 5-[N-(4-chlorophenyl)methylthio]-6-nitrophthalimide], the IC50 was greater than 1000 µM at GPRTase from G. lamblia (setting [3]), greater than 1000 µM on Human HGPRTase (setting [3]) and 425 µM at HGXPRTase from T. foetus (setting [4]).

One may read the IC50 as the midpoint of a concentration-inhibition curve.

Source of the values: US6075044A, “Heterocyclic derivatives as inhibitors of purine salvage phosphoribosyltransferases” (The Regents of the University of California, priority 1998, dated 2000).
